Results on two molecules are retold here after patent US20070259909A1, “Novel Difluoroethoxy-Substituted Hydroxy-6-Phenylphenanthridines and Their Use as Pde4 Inhibitors” (ALTANA PHARMA AG, priority 2004, published 2007).

For this assay, the target named is T1, PDE4B2 (Homo sapiens, UniProt Q07343).
T1 construct: made in house; host or cells: SF21 insect cells (baculovirus; virus generated in SF9 cells)
Nature of the assay: PDE4B2 [3H]cAMP SPA enzyme assay (inhibition of PDE4 activity). Type of assay: biochemical. To be noted: recombinant PDE4B2 (GB no. M97515) expressed in SF21 insect cells; cAMP substrate; 37° C., 15 min; read-out: -log IC50(mol/l), Inhibition of the PDE4 activity (converted). As to the method: The PDE4B2 (GB no. M97515) was a gift of Prof. M. Conti (Stanford University, USA). It was amplified from the original plasmid (pCMV5) via PCR with primers Rb9 (5′-[…]-3′) and Rb10 (5′-[…]-3′) and cloned into the pCR-Bac vector (Invitrogen, Groningen, NL).
The recombinant baculovirus was prepared by means of homologous recombination in SF9 insect cells. The expression plasmid was cotransfected with Bac-N-Blue (Invitrogen, Groningen, NL) or Baculo-Gold DNA (Pharmingen, Hamburg) using a standard protocol (Pharmingen, Hamburg). Wt virus-free recombinant virus supernatant was selected using plaque assay methods. After that, high-titre virus supernatant was prepared by amplifying 3 times. […]
The SF21 insect cells were resuspended, at a concentration of approx. 10^7 cells/ml, in ice-cold (° C.) homogenization buffer (20 mM Tris, pH 8.2, containing the following additions: 140 mM NaCl, 3.8 mM KCl, 1 mM EGTA, 1 mM MgCl2, 10 mM P-mercaptoethanol, 2 mM benzamidine, 0.4 mM Pefablock, 10 μM leupeptin, […] pepstatin A, 5 μM trypsin inhibitor) and disrupted by ultrasonication. […] The protein content was determined by the Bradford method (BioRad, Munich) using BSA as the standard. […]
Representative inhibitory values determined for the compounds according to the invention follow from the following table A, in which the numbers of the compounds correspond to the numbers of the Examples.

T1 sequence (Q07343 1-564 isoform Q07343-2): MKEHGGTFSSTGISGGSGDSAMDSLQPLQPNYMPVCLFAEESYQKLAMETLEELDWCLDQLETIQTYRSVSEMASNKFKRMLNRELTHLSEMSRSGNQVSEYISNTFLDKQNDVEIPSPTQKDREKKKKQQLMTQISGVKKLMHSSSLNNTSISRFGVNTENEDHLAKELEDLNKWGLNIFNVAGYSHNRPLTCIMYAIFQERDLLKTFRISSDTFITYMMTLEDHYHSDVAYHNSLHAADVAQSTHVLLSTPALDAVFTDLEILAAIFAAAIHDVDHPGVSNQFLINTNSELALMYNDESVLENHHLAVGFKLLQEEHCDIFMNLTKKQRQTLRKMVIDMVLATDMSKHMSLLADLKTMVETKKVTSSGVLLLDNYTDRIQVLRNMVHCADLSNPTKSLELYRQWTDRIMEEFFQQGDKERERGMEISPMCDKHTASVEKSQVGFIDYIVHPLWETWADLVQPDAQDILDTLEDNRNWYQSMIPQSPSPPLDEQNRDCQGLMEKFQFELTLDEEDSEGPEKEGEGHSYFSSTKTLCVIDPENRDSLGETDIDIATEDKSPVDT

Take `COc1cc2c(cc1OCC(F)F)[C@H]1C[C@H](O)CC[C@H]1N=C2c1ccc(C#N)cc1` (racemic) [Compound 3, 4-[(2RS,4aRS,10bRS)-9-(2,2-Difluoro-ethoxy)-2-hydroxy-8-methoxy-1,2,3,4,4a,10b-hexahydro-phenanthridin-6-yl]-benzonitrile]: the IC50 is 1.82 nM.

As for `COc1cc2c(cc1OCC(F)F)C1CC(O)CCC1N=C2c1ccc(F)cc1` (racemic) [Compound 1, (2RS,4aRS,10bRS)-9-(2,2-Difluoroethoxy)-6(4fluorophenyl)-8-methoxy-(1,2,3,4,4a,10b)-hexahydrophenanthridin-2-ol], the IC50 was 0.708 nM.
